According to ChEMBL document CHEMBL2010699, “Novel substituted 9-norbornylpurines and their activities against RNA viruses” (Bioorg Med Chem Lett, 2012):
Values after ≈ are worked out from the molar mass of the structure shown. Active and inactive are the calls of the source. The calls are words filed in the database; no cut-off is given here.

What was measured:
[1] = Solubility of the compound in water at 20 degC by UV spectrophotometry; format: physicochemical
Hepatitis C virus = assay: Antiviral activity against Hepatitis C virus assessed as suppression of viral replication; format: functional, organism-based; conditions: Hepacivirus hominis
Chikungunya virus = assay: Antiviral activity against Chikungunya virus assessed as suppression of viral replication; format: functional
Coxsackievirus B3 [2] = assay: Antiviral activity against Coxsackievirus B3 infected in african green monkey Vero cells assessed as inhibition virus-induced cell death by MTS assay; format: functional, organism-based; conditions: Enterovirus B
[3] = Cytotoxicity against african green monkey Vero cells assessed as inhibition of host metabolism by MTS assay; format: cell-based; conditions: chlorocebus sabaeus
[4] = Selectivity index, ratio of CC50 for african green monkey Vero cells to EC50 for Coxsackievirus B3; format: toxicity, cell-based; conditions: read-out: Ratio CC50/EC50
Coxsackievirus B3 [5] = assay: Antiviral activity against Coxsackievirus B3 infected in african green monkey vero cells assessed as inhibition of virus-induced cytopathic effect by microscopic estimation; format: functional, organism-based
Vero = assay: Cytotoxicity against african green monkey Vero cells assessed as change in morphology of the cells by microscopic analysis; format: cell-based; conditions: chlorocebus sabaeus

SMILES	solubility [1]	Activity (Hepatitis C virus)	Activity (Chikungunya virus)	EC50 (Coxsackievirus B3 [2])	EC90 (Coxsackievirus B3 [2])	CC50 [3]	selectivity ratio [4]	Activity (Coxsackievirus B3 [5])	Activity (Vero)
Clc1ncnc2c1ncn2C1CC2CCC1C2 (stereo unspecified)	530 µg/mL (≈ 2.13 mM)								
O=C(OC1CC2CC1CC2n1cnc2c(Cl)ncnc21)c1ccccc1 (stereo unspecified)		inactive	inactive	> 150 µM	> 150 µM	> 542 µM			
O=C(OC1CC2CC1C(n1cnc3c(Cl)ncnc31)C2)c1ccccc1 (stereo unspecified)		inactive	inactive	35 µM	> 45 µM	45 µM	1.3		
C[C@@]1(O)[C@H](O)[C@@H](CO)O[C@H]1n1ccc(N)nc1=O				94 µM	179 µM				
CCCCCC(=O)O[C@H]1C[C@H]2C[C@@H]1[C@H](n1cnc3c(Cl)ncnc31)C2 (relative stereo)		inactive	inactive	> 70 µM	> 70 µM	70 µM	< 1		
CCCCCCCC(=O)O[C@H]1C[C@H]2C[C@@H]1[C@H](n1cnc3c(Cl)ncnc31)C2 (relative stereo)		inactive	inactive	> 50 µM	> 50 µM	50 µM	< 1		
CCCCCCCCCC(=O)O[C@H]1C[C@H]2C[C@@H]1[C@H](n1cnc3c(Cl)ncnc31)C2 (relative stereo)		inactive	inactive	> 44 µM	> 44 µM	44 µM	< 1		
CCCCCC(=O)O[C@H]1C[C@H]2C[C@@H]1C[C@@H]2n1cnc2c(Cl)ncnc21 (relative stereo)		inactive	inactive	34 µM	56 µM	60 µM	1.8	Active	Non-toxic
CCCCCCCC(=O)O[C@H]1C[C@H]2C[C@@H]1C[C@@H]2n1cnc2c(Cl)ncnc21 (relative stereo)		inactive	inactive	> 52 µM	> 52 µM	52 µM	< 1		
CCCCCCCCCC(=O)O[C@H]1C[C@H]2C[C@@H]1C[C@@H]2n1cnc2c(Cl)ncnc21 (relative stereo)		inactive	inactive	32 µM	> 47 µM	47 µM	1.5	Active	Non-toxic
CO[C@H]1C[C@H]2C[C@@H]1C[C@@H]2n1cnc2c(Cl)ncnc21 (relative stereo)		inactive	inactive	27 µM	37 µM	> 718 µM	> 27	Active	Non-toxic
CCCCCO[C@H]1C[C@H]2C[C@@H]1C[C@@H]2n1cnc2c(Cl)ncnc21 (relative stereo)		inactive	inactive	21 µM	> 32 µM	32 µM	1.5		
CCCCCCO[C@H]1C[C@H]2C[C@@H]1C[C@@H]2n1cnc2c(Cl)ncnc21 (relative stereo)		inactive	inactive	> 27 µM	> 27 µM	27 µM	< 1		
Clc1ncnc2c1ncn2[C@H]1C[C@H]2C[C@@H]1C[C@@H]2OC1CCCCC1 (relative stereo)		inactive	inactive	> 22 µM	> 22 µM	22 µM	< 1		
Clc1ncnc2c1ncn2[C@H]1C[C@H]2C[C@@H]1C[C@@H]2Oc1ccccc1 (relative stereo)		inactive	inactive	> 50 µM	> 50 µM	50 µM	< 1		
Clc1ncnc2c1ncn2[C@@H]1C[C@@H]2C[C@H]1[C@@H](Oc1ccccc1)C2 (relative stereo)		inactive	inactive	> 150 µM	> 150 µM	> 587 µM			
Oc1ccc(O[C@H]2C[C@H]3C[C@@H]2C[C@@H]3n2cnc3c(Cl)ncnc32)cc1 (relative stereo)		inactive	inactive	58 µM		217 µM	3.7		
OCCO[C@H]1C[C@H]2C[C@@H]1C[C@@H]2n1cnc2c(Cl)ncnc21 (relative stereo)		inactive	inactive	37 µM		> 648 µM	> 18	Active	Non-toxic
OCCCO[C@H]1C[C@H]2C[C@@H]1C[C@@H]2n1cnc2c(Cl)ncnc21 (relative stereo)		inactive	inactive	47 µM		> 620 µM	> 13	Active	Non-toxic
OCCCCO[C@H]1C[C@H]2C[C@@H]1C[C@@H]2n1cnc2c(Cl)ncnc21 (relative stereo)		inactive	inactive	37 µM	53 µM	> 594 µM	> 16	Active	Non-toxic
OCCCCCO[C@H]1C[C@H]2C[C@@H]1C[C@@H]2n1cnc2c(Cl)ncnc21 (relative stereo)		inactive	inactive	22 µM	30 µM	> 570 µM	> 26	Active	Non-toxic
OCCOCCO[C@H]1C[C@H]2C[C@@H]1C[C@@H]2n1cnc2c(Cl)ncnc21 (relative stereo)	7460 µg/mL (≈ 21.1 mM)	inactive	inactive	42 µM	60 µM	> 567 µM	> 14	Active	Non-toxic
OCCO[C@H]1C[C@H]2C[C@@H]1[C@H](n1cnc3c(Cl)ncnc31)C2 (relative stereo)		inactive	inactive	29 µM	37 µM	> 648 µM	> 22	Active	Non-toxic
OCCO[C@@H]1C[C@H]2C[C@@H]1C[C@@H]2n1cnc2c(Cl)ncnc21 (relative stereo)	4570 µg/mL (≈ 14.8 mM)	inactive	inactive	16 µM	32 µM	> 648 µM	> 41	Active	Non-toxic
OCCO[C@@H]1C[C@H]2C[C@@H]1[C@H](n1cnc3c(Cl)ncnc31)C2 (relative stereo)	4690 µg/mL (≈ 15.2 mM)	inactive	inactive	13 µM	22 µM	> 648 µM	> 50	Active	Non-toxic
